In PMC9532703, “A novel small molecule RK-019 inhibits FGFR2-amplification gastric cancer cell proliferation and induces apoptosis in vitro and in vivo” (Frontiers in Pharmacology, 2022):

Key:
Blk(h) = biological target: T1, Blk(h) (Homo sapiens, UniProt P51451); experiment: Kinase selectivity panel; assay type: biochemical; details: read-out: Inhibition(%) @ 1 µM RK-019
T1 construct: purchased Eurofins Discovery Services (KinaseProfiler)
Method in brief: (§1)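 Inhibition ratio was measured at 1 µM test compound in an ATP-site competition binding format across 422 recombinant human kinases.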

CDK1/cyclinB(h) = biological target: T2, CDK1/cyclinB(h) (Homo sapiens, UniProt P06493); experiment: Kinase selectivity panel; assay type: biochemical; details: read-out: Inhibition(%) @ 1 µM RK-019
T2 construct: purchased Eurofins Discovery Services (KinaseProfiler)
Method in brief: as §1

CDK5/p35(h) = biological target: T3, CDK5/p35(h) (Homo sapiens, UniProt Q00535); experiment: Kinase selectivity panel; assay type: biochemical; details: read-out: Inhibition(%) @ 1 µM RK-019
T3 construct: purchased Eurofins Discovery Services (KinaseProfiler)
Method in brief: as §1

CHK1(h) = biological target: T4, CHK1(h) (Homo sapiens, UniProt O14757); experiment: Kinase selectivity panel; assay type: biochemical; details: read-out: Inhibition(%) @ 1 µM RK-019
T4 construct: purchased Eurofins Discovery Services (KinaseProfiler)
Method in brief: as §1

EGFR(h) = biological target: T5, EGFR(h) (Homo sapiens, UniProt P00533); experiment: Kinase selectivity panel; assay type: biochemical; details: read-out: Inhibition(%) @ 1 µM RK-019
T5 construct: purchased Eurofins Discovery Services (KinaseProfiler)
Method in brief: as §1

Fyn(h) = biological target: T6, Fyn(h) (Homo sapiens, UniProt P06241); experiment: Kinase selectivity panel; assay type: biochemical; details: read-out: Inhibition(%) @ 1 µM RK-019
T6 construct: purchased Eurofins Discovery Services (KinaseProfiler)
Method in brief: as §1

HPK1(h) = biological target: T7, HPK1(h) (Homo sapiens, UniProt Q92918); experiment: Kinase selectivity panel; assay type: biochemical; details: read-out: Inhibition(%) @ 1 µM RK-019
T7 construct: purchased Eurofins Discovery Services (KinaseProfiler)
Method in brief: as §1

LRRK2(h) = biological target: T8, LRRK2(h) (Homo sapiens, UniProt Q5S007); experiment: Kinase selectivity panel; assay type: biochemical; details: read-out: Inhibition(%) @ 1 µM RK-019
T8 construct: purchased Eurofins Discovery Services (KinaseProfiler)
Method in brief: as §1

MARK3(h) = biological target: T9, MARK3(h) (Homo sapiens, UniProt P27448); experiment: Kinase selectivity panel; assay type: biochemical; details: read-out: Inhibition(%) @ 1 µM RK-019
T9 construct: purchased Eurofins Discovery Services (KinaseProfiler)
Method in brief: as §1

NEK11(h) = biological target: T10, NEK11(h) (Homo sapiens, UniProt Q8NG66); experiment: Kinase selectivity panel; assay type: biochemical; details: read-out: Inhibition(%) @ 1 µM RK-019
T10 construct: purchased Eurofins Discovery Services (KinaseProfiler)
Method in brief: as §1

PDGFRβ(h) = biological target: T11, PDGFRβ(h) (Homo sapiens, UniProt P09619); experiment: Kinase selectivity panel; assay type: biochemical; details: read-out: Inhibition(%) @ 1 µM RK-019
T11 construct: purchased Eurofins Discovery Services (KinaseProfiler)
Method in brief: as §1

PDHK4(h) = biological target: T12, PDHK4(h) (Homo sapiens, UniProt Q16654); experiment: Kinase selectivity panel; assay type: biochemical; details: read-out: Inhibition(%) @ 1 µM RK-019
T12 construct: purchased Eurofins Discovery Services (KinaseProfiler)
Method in brief: as §1

PKCδ(h) = biological target: T13, PKCδ(h) (Homo sapiens, UniProt Q05655); experiment: Kinase selectivity panel; assay type: biochemical; details: read-out: Inhibition(%) @ 1 µM RK-019
T13 construct: purchased Eurofins Discovery Services (KinaseProfiler)
Method in brief: as §1

PKCθ(h) = biological target: T14, PKCθ(h) (Homo sapiens, UniProt Q04759); experiment: Kinase selectivity panel; assay type: biochemical; details: read-out: Inhibition(%) @ 1 µM RK-019
T14 construct: purchased Eurofins Discovery Services (KinaseProfiler)
Method in brief: as §1

Rsk2(h) = biological target: T15, Rsk2(h) (Homo sapiens, UniProt P51812); experiment: Kinase selectivity panel; assay type: biochemical; details: read-out: Inhibition(%) @ 1 µM RK-019
T15 construct: purchased Eurofins Discovery Services (KinaseProfiler)
Method in brief: as §1

c-RAF(h) = biological target: T16, c-RAF(h) (Homo sapiens, UniProt P04049); experiment: Kinase selectivity panel; assay type: biochemical; details: read-out: Inhibition(%) @ 1 µM RK-019
T16 construct: purchased Eurofins Discovery Services (KinaseProfiler)
Method in brief: as §1

cKit(V560G)(h) = biological target: T17, cKit(V560G)(h) (Homo sapiens, UniProt P10721, V560G); experiment: Kinase selectivity panel; assay type: biochemical; details: read-out: Inhibition(%) @ 1 µM RK-019
T17 construct: purchased Eurofins Discovery Services (KinaseProfiler)
Method in brief: as §1

Rsk1(r) = biological target: T18, Rsk1(r) (Rattus norvegicus, UniProt Q63531); experiment: Kinase selectivity panel; assay type: biochemical; details: read-out: Inhibition(%) @ 1 µM RK-019
T18 construct: purchased Eurofins Discovery Services (KinaseProfiler)

KATO III cells [1] = experiment: Cell cycle analysis by flow cytometry (PI staining); assay type: cell-based; details: 100 nM, 24 h
Procedure: Cell cycle and apoptosis assay were both measured by flow cytometry (FCM). The data were analyzed by the NovoExpress software (v1.4.0, Agilent, Santa Clara, CA, United States). For cell cycle assay, the cells were treated by different concentrations of RK-019 for 24 h, then were harvested and washed twice with cold phosphate buffered solution (PBS), followed by fixed with 75% ethanol overnight. Before test, the cells were washed twice with cold PBS and stained with PI stanning solution using cell cycle detecting kit (KGA512, KeyGEN, Nanjing, China), and then measured by FCM. For apoptosis assay, the cells were harvested after treated with different concentrations of RK-019 for 24 h, and stained with a PE Annexin V Apoptosis Detection Kit according to the manufacturer’s protocol followed by detected using FCM.

[2] = Preliminary toxicity in the xenograft mice model; assay type: in vivo, NOD/SCID mice
Procedure: NOD/SCID mice (6-week-old, weight 18–20 g, Beijing HJF bioscience) were used in this experiment and maintained in a specific-pathogen-free (SPF) condition facility. SNU-16 Cells were resuspended in PBS mixed with Matrigel (1:1) and adjust the density to 1×10^7 per mice (100 μL). The cell suspensions were inoculated subcutaneously on the right flank of the mice. When the mean tumor volume reached approximately 200 mm^3, the mice were divided into four groups (five mice each group): i. Vehicle group, ii. RK-019 15 mg/kg group, iii. RK-019 30 mg/kg group, and iv. RK-019 45 mg/kg group. RK-019 was dissolved in same formula as the in vivo PK study. RK-019 was administrated once per day by oral gavage for 21 days. Tumor volumes were measured three times per week. The tumor volume was measured by a caliper and calculated according to the following formula: Tumor volume=Major axis×Miner axis^2/2.
At the end of administration, the mice were executed euthanasia, then tumors, blood, and organs were extracted. The complete blood count (CBC), serum phosphorus analysis, and blood biochemical analysis were completed by West China Frontier Pharma Tech (Chengdu, China). The pathological section and IHC stanning was completed by Servicebio (Wuhan, China). The tumor growth inhibition (TGI) values were calculated with the following formula: TGI=(1−Tn−T0/Cn−C0)×100%.

KATO III cells [3] = experiment: Transwell migration and invasion assay; assay type: cell-based; details: 100 nM, 24 h
Procedure: (§2) In the migration assay, 1×10^5 cells were resuspended in a serum-free medium, then added into the upper chamber, meanwhile the medium containing 10% FBS was added at the bottom with 100 nM RK-019. After 24 h incubation, the migration cells on the filters were fixed with 4% paraformldehyde and washed with PBS, then stained with crystal violet solution for 20 min. In the invasion assay, the upper surface of the transwell was coated with Matrigel (356234, Corning) for 30 min at 37°C until Matrigel was solidified. 1×10^5 cells were resuspended in a serum-free medium, then added into the upper chamber, meanwhile the medium containing 10% FBS was added at the bottom with 100 nM RK-019.After 24 h , the invasion cells on the filters were hatched and fixed, then stained with crystal violet.

SNU-16 cells = experiment: Transwell migration and invasion assay; assay type: cell-based; details: SNU-16, 100 nM, 24 h
Procedure: as §2

T6 sequence (P06241 whole entry): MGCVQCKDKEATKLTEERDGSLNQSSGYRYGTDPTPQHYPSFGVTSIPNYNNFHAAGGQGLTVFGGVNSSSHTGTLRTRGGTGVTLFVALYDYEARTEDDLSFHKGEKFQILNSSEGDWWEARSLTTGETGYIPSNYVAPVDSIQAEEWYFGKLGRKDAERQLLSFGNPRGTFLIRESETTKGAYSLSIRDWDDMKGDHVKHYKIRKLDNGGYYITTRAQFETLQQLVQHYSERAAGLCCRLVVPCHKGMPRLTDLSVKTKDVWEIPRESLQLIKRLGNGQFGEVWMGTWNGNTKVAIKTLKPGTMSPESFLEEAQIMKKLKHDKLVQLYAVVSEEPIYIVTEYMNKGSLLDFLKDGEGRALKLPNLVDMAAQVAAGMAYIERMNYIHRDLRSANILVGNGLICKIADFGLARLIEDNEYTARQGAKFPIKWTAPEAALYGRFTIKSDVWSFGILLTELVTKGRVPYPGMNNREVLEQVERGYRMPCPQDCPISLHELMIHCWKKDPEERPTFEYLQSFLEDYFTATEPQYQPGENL
T16 sequence (P04049 whole entry): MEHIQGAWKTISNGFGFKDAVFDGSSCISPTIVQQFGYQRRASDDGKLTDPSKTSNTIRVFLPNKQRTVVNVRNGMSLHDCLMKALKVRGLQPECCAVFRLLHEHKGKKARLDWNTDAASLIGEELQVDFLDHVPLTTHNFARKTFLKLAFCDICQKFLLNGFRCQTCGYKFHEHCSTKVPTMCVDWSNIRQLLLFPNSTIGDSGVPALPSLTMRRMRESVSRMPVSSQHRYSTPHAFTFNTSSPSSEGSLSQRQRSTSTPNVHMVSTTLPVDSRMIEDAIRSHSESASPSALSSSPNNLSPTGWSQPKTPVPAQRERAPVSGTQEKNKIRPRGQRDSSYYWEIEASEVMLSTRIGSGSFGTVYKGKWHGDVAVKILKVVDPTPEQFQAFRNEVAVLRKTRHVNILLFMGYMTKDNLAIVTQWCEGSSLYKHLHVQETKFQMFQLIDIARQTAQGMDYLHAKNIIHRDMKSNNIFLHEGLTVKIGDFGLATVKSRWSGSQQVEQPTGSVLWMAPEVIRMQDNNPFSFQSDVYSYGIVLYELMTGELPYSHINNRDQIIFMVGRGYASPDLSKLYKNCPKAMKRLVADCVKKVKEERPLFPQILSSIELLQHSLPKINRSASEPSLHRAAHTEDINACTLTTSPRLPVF
T3 sequence (Q00535 whole entry): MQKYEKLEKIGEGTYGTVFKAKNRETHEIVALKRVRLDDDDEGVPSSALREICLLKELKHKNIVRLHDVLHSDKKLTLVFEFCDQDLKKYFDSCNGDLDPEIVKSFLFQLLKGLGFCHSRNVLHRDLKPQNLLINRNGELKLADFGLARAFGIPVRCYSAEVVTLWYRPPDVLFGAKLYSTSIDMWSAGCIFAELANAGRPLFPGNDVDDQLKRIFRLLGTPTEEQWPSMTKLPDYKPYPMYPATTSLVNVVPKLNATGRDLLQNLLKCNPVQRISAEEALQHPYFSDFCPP
T3 sequence (Q15078 whole entry partner): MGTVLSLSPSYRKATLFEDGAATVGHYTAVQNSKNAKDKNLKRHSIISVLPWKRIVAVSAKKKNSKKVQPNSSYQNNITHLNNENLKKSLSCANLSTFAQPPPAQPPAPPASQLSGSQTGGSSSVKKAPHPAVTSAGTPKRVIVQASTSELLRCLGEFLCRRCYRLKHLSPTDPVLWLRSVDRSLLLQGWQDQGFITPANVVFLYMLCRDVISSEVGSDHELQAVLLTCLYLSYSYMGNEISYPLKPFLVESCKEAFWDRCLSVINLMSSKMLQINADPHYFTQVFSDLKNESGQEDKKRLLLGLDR
T1 sequence (P51451 whole entry): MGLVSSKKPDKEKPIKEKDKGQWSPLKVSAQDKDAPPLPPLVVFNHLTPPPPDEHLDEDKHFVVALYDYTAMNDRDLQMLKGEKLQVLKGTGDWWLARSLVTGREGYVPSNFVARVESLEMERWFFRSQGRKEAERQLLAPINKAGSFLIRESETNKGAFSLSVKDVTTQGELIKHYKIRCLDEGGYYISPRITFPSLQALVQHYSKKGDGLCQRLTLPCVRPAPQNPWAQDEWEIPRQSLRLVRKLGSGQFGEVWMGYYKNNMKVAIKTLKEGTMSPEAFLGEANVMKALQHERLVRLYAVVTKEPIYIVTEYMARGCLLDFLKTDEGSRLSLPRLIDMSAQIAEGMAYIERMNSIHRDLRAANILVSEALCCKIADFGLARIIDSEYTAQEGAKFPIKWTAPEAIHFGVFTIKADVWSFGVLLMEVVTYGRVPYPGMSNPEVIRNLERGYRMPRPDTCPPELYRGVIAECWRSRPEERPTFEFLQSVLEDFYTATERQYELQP
T15 sequence (P51812 whole entry): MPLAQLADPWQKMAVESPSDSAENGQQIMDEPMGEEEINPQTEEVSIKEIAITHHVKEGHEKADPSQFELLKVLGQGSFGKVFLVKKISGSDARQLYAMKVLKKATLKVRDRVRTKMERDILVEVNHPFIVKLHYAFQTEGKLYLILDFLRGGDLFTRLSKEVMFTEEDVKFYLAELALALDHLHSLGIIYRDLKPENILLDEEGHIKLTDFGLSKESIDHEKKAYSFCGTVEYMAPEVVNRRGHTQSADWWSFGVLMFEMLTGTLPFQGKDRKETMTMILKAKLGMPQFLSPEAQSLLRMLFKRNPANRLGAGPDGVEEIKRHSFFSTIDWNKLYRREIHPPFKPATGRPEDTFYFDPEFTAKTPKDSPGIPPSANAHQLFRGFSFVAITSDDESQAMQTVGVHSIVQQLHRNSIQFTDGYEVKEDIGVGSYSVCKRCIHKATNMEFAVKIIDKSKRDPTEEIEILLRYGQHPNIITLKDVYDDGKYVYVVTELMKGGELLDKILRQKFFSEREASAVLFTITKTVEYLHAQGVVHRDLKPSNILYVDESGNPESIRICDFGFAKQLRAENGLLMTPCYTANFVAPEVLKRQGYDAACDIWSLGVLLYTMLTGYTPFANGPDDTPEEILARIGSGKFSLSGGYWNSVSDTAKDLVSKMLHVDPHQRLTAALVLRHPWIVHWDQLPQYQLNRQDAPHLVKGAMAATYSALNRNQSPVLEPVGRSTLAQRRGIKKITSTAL
T18 sequence (Q63531 whole entry): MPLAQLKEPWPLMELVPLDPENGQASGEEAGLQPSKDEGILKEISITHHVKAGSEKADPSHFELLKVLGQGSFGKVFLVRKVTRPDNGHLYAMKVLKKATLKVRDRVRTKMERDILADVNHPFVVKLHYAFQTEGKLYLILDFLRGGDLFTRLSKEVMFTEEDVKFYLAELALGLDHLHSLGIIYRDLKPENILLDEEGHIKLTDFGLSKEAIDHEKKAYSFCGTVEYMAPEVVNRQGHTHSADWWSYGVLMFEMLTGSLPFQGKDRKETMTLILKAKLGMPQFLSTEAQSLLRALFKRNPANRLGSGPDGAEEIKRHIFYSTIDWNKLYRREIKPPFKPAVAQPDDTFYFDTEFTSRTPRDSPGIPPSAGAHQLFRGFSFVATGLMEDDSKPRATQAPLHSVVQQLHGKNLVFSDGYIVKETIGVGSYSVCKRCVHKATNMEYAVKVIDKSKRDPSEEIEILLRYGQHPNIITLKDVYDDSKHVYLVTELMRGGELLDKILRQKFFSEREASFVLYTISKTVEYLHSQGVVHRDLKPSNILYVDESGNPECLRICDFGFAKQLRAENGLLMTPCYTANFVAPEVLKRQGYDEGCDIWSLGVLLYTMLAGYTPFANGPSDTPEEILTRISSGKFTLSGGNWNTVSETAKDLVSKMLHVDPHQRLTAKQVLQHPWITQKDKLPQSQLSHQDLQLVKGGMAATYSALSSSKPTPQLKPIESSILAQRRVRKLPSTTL
T13 sequence (Q05655 whole entry): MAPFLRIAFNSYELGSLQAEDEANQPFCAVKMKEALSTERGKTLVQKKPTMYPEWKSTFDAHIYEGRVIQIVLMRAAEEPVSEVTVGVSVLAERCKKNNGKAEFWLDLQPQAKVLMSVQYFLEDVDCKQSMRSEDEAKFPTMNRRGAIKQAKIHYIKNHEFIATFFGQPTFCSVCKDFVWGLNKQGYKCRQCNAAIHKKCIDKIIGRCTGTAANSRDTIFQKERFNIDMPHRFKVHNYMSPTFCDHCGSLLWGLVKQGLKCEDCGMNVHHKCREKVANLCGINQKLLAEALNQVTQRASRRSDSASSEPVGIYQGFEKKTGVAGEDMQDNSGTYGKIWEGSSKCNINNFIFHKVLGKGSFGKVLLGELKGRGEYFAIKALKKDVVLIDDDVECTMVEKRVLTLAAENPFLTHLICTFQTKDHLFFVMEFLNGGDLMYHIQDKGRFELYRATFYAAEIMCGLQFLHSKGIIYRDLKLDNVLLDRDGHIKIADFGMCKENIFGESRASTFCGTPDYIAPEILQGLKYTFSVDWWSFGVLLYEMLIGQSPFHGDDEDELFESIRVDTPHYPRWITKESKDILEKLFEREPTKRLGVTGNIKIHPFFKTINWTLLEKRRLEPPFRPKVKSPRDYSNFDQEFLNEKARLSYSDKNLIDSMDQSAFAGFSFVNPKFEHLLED
T4 sequence (O14757 whole entry): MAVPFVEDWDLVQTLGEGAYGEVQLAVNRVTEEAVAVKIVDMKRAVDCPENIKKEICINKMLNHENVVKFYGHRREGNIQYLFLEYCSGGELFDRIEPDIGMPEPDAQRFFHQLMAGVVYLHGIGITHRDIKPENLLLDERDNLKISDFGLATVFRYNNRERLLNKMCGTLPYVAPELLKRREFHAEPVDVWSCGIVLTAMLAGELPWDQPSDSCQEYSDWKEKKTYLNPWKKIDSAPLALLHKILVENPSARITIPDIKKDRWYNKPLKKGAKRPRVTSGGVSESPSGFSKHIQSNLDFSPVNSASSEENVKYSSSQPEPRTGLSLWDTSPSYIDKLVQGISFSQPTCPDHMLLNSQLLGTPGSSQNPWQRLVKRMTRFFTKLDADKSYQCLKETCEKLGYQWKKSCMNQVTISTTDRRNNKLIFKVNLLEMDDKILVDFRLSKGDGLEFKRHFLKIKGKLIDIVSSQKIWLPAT

COc1cc(OC)cc(N(CCN[C@H](C)CO)c2ccc3ncc(-c4cnn(C)c4)c(=O)n3c2)c1 [RK-019, (R)-7-((3,5-dimethoxyphenyl) (2-((1-hydroxypropan-2-yl)amino)ethyl)amino)-3-(1-methyl-1H-pyrazol-4-yl)-4H-pyrido [1,2-a]pyrimidin-4-one]
activity at 1 µM (Blk(h)): 70%
activity at 1 µM (CDK1/cyclinB(h)): 99%
activity at 1 µM (CDK5/p35(h)): 106%
activity at 1 µM (CHK1(h)): 90%
activity at 1 µM (EGFR(h)): 119%
activity at 1 µM (Fyn(h)): 62%
activity at 1 µM (HPK1(h)): 95%
activity at 1 µM (LRRK2(h)): 80%
activity at 1 µM (MARK3(h)): 80%
activity at 1 µM (NEK11(h)): 118%
activity at 1 µM (PDGFRβ(h)): 54%
activity at 1 µM (PDHK4(h)): 93%
activity at 1 µM (PKCδ(h)): 99%
activity at 1 µM (PKCθ(h)): 119%
activity at 1 µM (Rsk2(h)): 149%
activity at 1 µM (c-RAF(h)): 94%
activity at 1 µM (cKit(V560G)(h)): 14%
activity at 1 µM (Rsk1(r)): 96%
G0/G1 proportion (KATO III cells [1]): 67.88%
body weight change ([2]; during 21 days treatment, 15-45 mg/kg oral): no significant body weight change
hematopoietic toxicity ([2]; end of 21 days treatment): absent
pathological changes in harvested organs (H&E) ([2]; end of 21 days treatment): no pathological changes
migration and invasion ability (KATO III cells [3]): significantly suppress
migration and invasion ability (SNU-16 cells): significantly suppress
